# Experimental data reported in patent publication US9513294B2, “Megastokes amino-triazolyl-BODIPY compounds and applications to live neuron staining and human serum albumin FA1 drug site probing” (National University of Singapore, priority 2012, dated 2016).
# What was measured:
# [1] = Absorbance and fluorescence emission spectra (SpectraMax M2); format: physicochemical; conditions: for λmax Absorp. (nm) / λmax Emission (nm): MKCA compound library
# Protocol: BDC-8 (Blue): absorbance λmax=473 nm, emission λmax=585 nm; MK101-8 (Green): absorbance λmax=474 nm, emission λmax=563 nm; MKHA374-48 (Yellow): absorbance λmax=468 nm, λem=557 nm. The corresponding spectra of a reported BODIPY (BD-27; Red) are also included for comparison: absorbance λmax=551 nm, emission λmax=568 nm. The structures of BDC-8, MK101-8, MKHA374-48 and BD-27 are also depicted.
# (§1) ^1H-NMR, ^19F-NMR and ^13C-NMR spectra were recorded on Bruker ACF300 (300 MHz), DPX300 (300 MHz) and AMX500 (500 MHz) spectrometers. High resolution mass spectra (ESI) were obtained on a Finnigan/MAT 95XL-T spectrometer. Spectroscopic and quantum yield data were measured on a SpectraMax M2 spectrophotometer (Molecular Devices). Data analysis was performed using GraphPrism 5.0. Analytical characterization was performed on a HPLC-MS (Agilent-1200 series) with a DAD detector and a single quadrupole mass spectrometer (6130 series) with an ESI probe. Analytical HPLC method: eluents, A: H2O (0.1% HCOOH), B: CH3CN (0.1% HCOOH), gradient 5% B to 95% B (10 min). Reverse-phase Phenomenex C18 Luna column (4.6×50 mm^2, 3.5 […]), flow rate: 1 mL/min.
# [2] = Quantum yield measurements versus Acridine Yellow in EtOH; format: physicochemical; conditions: for φ (quantum yield): excitation 460 nm; for φ (%): quantum yield
# Protocol: as §1
# Quantum yields were calculated by measuring the integrated emission area of the fluorescent spectra and comparing to the area measured for Acridine Yellow in EtOH when excited at 460 nm (Φfluorescence^AcridineYellow=0.47). Quantum yields for the amino-triazolyl-BODIPYs were calculated using the equation below, where F represents the area of fluorescent emission, η is the refractive index of the solvent, and Abs is absorbance at the excitation wavelength selected for standards and samples. Emission was integrated between 510 and 700 nm.
compound,measurement,setting,value
Nc1ccc(C2=C3C=CC(N4CCCC4)=[N+]3[B-](F)(F)n3c2ccc3-n2cc(CC3CCCCC3)nn2)cc1 [MK215-8],λmax Absorp.,"[1]; MK library, Table 5",470 nm
same,λmax Emission,"[1]; MK library, Table 5",574 nm
same,φ (quantum yield),"[2]; MK library, Table 5",0.56%
CC(C)Cc1cn(-c2ccc3n2[B-](F)(F)[N+]2=C(N4CCCCC4)C=CC2=C3c2ccc(N)cc2)nn1 [BDC-43],λmax Absorp.,"[1]; BDC library, Table 2",476 nm
same,λmax Emission,"[1]; BDC library, Table 2",589 nm
same,φ (quantum yield),"[2]; BDC library, Table 2",0.10%
CN(Cc1ccccc1)C1=[N+]2C(=C(c3ccc(N)cc3)c3ccc(-n4cc(C5CC5)nn4)n3[B-]2(F)F)C=C1 [MK195-4],λmax Absorp.,"[1]; MK library, Table 5",476 nm
same,λmax Emission,"[1]; MK library, Table 5",566 nm
same,φ (quantum yield),"[2]; MK library, Table 5",0.34%
Cc1cccc(-c2cn(-c3ccc4n3[B-](F)(F)[N+]3=C(N5CCCCC5)C=CC3=C4c3ccc(N)cc3)nn2)c1 [BDC-45],λmax Absorp.,"[1]; BDC library, Table 2",469 nm
same,λmax Emission,"[1]; BDC library, Table 2",556 nm
same,φ (quantum yield),"[2]; BDC library, Table 2",0.42%
O=C(CCl)Nc1ccc(C2=C3C=CC(N4CCCCC4)=[N+]3[B-](F)(F)n3c2ccc3-n2cc(C3CC3)nn2)cc1 [BDCCA-4],λmax Absorp.,"[1]; BDCCA library, Table 4",467 nm
same,λmax Emission,"[1]; BDCCA library, Table 4",577 nm
same,φ (quantum yield),"[2]; BDCCA library, Table 4",1.1%
CN(Cc1ccccc1)Cc1cn(-c2ccc3n2[B-](F)(F)[N+]2=C(N4CCCC4)C=CC2=C3c2ccc(NC(=O)CCl)cc2)nn1 [MKCA215-18],λmax Absorp. (nm),[1]; absorbance maximum,461 nm
same,λmax Emission (nm),[1]; fluorescence emission maximum,577 nm
same,φ (%),[2]; MKCA compound library,2.62%
COc1ccc(OC)c(CNC2=[N+]3C(=C(c4ccc(NC(=O)CCl)cc4)c4ccc(-n5cc(CC6CCCCC6)nn5)n4[B-]3(F)F)C=C2)c1 [MKCA181-8],λmax Absorp. (nm),[1]; absorbance maximum,465 nm
same,λmax Emission (nm),[1]; fluorescence emission maximum,562 nm
same,φ (%),[2]; MKCA compound library,20.56%
O=C(CCl)Nc1ccc(C2=C3C=CC(NCc4cc(F)cc(F)c4)=[N+]3[B-](F)(F)n3c2ccc3-n2cc(CO)nn2)cc1 [MKCA412-70],λmax Absorp. (nm),[1]; absorbance maximum,464 nm
same,λmax Emission (nm),[1]; fluorescence emission maximum,562 nm
same,φ (%),[2]; MKCA compound library,6.28%
CCOc1ccccc1CNC1=[N+]2C(=C(c3ccc(NC(=O)CCl)cc3)c3ccc(-n4cc(CO)nn4)n3[B-]2(F)F)C=C1 [MKCA103-70],λmax Absorp. (nm),[1]; absorbance maximum,463 nm
same,λmax Emission (nm),[1]; fluorescence emission maximum,563 nm
same,φ (%),[2]; MKCA compound library,20.22%
CN(C)Cc1cn(-c2ccc3n2[B-](F)(F)[N+]2=C(N4CCCCC4)C=CC2=C3c2ccc(N)cc2)nn1 [BDC-2],λmax Absorp.,"[1]; BDC library, Table 2",469 nm
same,λmax Emission,"[1]; BDC library, Table 2",587 nm
same,φ (quantum yield),"[2]; BDC library, Table 2",0.13%
COc1ccc(OC)c(CNC2=[N+]3C(=C(c4ccc(N)cc4)c4ccc(-n5cc(CN(C)Cc6ccccc6)nn5)n4[B-]3(F)F)C=C2)c1 [MK181-18],λmax Absorp.,"[1]; MK library, Table 5",473 nm
same,λmax Emission,"[1]; MK library, Table 5",563 nm
same,φ (quantum yield),"[2]; MK library, Table 5",0.52%
COc1ccc(OC)c(CNC2=[N+]3C(=C(c4ccc(N)cc4)c4ccc(-n5cc(CO)nn5)n4[B-]3(F)F)C=C2)c1 [MK181-70],λmax Absorp.,"[1]; MK library, Table 5",472 nm
same,λmax Emission,"[1]; MK library, Table 5",568 nm
same,φ (quantum yield),"[2]; MK library, Table 5",0.88%
COc1ccc(OC)c(CNC2=[N+]3C(=C(c4ccc(NC(=O)CCl)cc4)c4ccc(-n5cc(CO)nn5)n4[B-]3(F)F)C=C2)c1 [MKCA181-70],λmax Absorp. (nm),[1]; absorbance maximum,464 nm
same,λmax Emission (nm),[1]; fluorescence emission maximum,562 nm
same,φ (%),[2]; MKCA compound library,19.42%
CCCCCCCCc1cn(-c2ccc3n2[B-](F)(F)[N+]2=C(N4CCCCC4)C=CC2=C3c2ccc(NC(=O)CCl)cc2)nn1 [BDCCA-44],λmax Absorp.,"[1]; BDCCA library, Table 4",466 nm
same,λmax Emission,"[1]; BDCCA library, Table 4",582 nm
same,φ (quantum yield),"[2]; BDCCA library, Table 4",0.7%
CCCC(C)c1cn(-c2ccc3n2[B-](F)(F)[N+]2=C(N4CC(C)OC(C)C4)C=CC2=C3c2ccc(NC(C)=O)cc2)nn1 (centres unmarked) [MKAC20-3],λmax Abs. (nm),"[1]; MKAC compound library, absorbance maximum",466 nm
same,λmax Em. (nm),"[1]; MKAC compound library, fluorescence emission maximum",583 nm
same,φ (%),[2]; MKAC compound library,2.40%
CCOc1ccccc1CNC1=[N+]2C(=C(c3ccc(N)cc3)c3ccc(-n4cc(C5CC5)nn4)n3[B-]2(F)F)C=C1 [MK103-4],λmax Absorp.,"[1]; MK library, Table 5",473 nm
same,λmax Emission,"[1]; MK library, Table 5",563 nm
same,φ (quantum yield),"[2]; MK library, Table 5",1.68%
CC(=O)Nc1ccc(C2=C3C=CC(N4CCCCC4)=[N+]3[B-](F)(F)n3c2ccc3-n2cc(-c3ccc(C)cc3)nn2)cc1 [BDCAC-10],λmax Absorp.,"[1]; BDCAC library, Table 3",464 nm
same,λmax Emission,"[1]; BDCAC library, Table 3",556 nm
same,φ (quantum yield),"[2]; BDCAC library, Table 3",2.4%
CCCC(C)c1cn(-c2ccc3n2[B-](F)(F)[N+]2=C(NCc4cc(OC)ccc4OC)C=CC2=C3c2ccc(NC(=O)CCl)cc2)nn1 (centres unmarked) [MKCA181-3],λmax Absorp. (nm),[1]; absorbance maximum,465 nm
same,λmax Emission (nm),[1]; fluorescence emission maximum,564 nm
